Here are results for 2 molecules from patent publication US6166091A, “2,3,4-trihydroxycyclopentanone” (Takara Shuzo Co., Ltd., priority 1997, dated 2000).

The subject of series [1] is mice. The series can be described thus: toxicity by oral administration to mice. Format: in vivo. As to conditions: oral administration of 100 mg/kg to mice.
A short description of series [2]: standing in aqueous solution, TLC detection of cyclopentenone formed. It is filed as physicochemical. As to conditions: 4 mM in water, 16 hours at 4° C., 37° C. or 45° C. Here is the method:
Hydroxycyclopentanone obtained in Example 2-(2) was dissolved in water to make the concentration 4 mM followed by allowing to stand for 16 hours at 4° C., 37° C. or 45° C. One μl of each of the samples was spotted on a silica gel 60 sheet F254 (manufactured by Merck), developed by the upper layer of a mixture of butyl acetate, acetic acid and water (3:2:2) and detected by means of an orcinol-sulfuric acid method. Thus, 400 mg of orcinol monohydrate (manufactured by Nacalai Tesque; 257-30) was dissolved in 22.8 ml of sulfuric acid, water was added to make 200 ml, the solution was sprayed on the thin layer after the development and heated at 120° C. for 1-2 minutes and the resulting spots were observed.

Series [3] can be described thus: storage of aqueous cyclopentenone solution, conversion to hydroxycyclopentanone. It is filed as physicochemical. As to conditions: water; aqueous solution stored at 4° C. for 30 days; read-out: cyclopentenone changed to hydroxycyclopentanone in aqueous solution.

For `O=C1CC(O)C(O)C1O` (stereo not drawn) [hydroxycyclopentanone, 2,3,4-trihydroxycyclopentanone], in series [1], the toxicity entry is reported as “no toxicity was noted”. The “conversion to cyclopentenone in aqueous solution (TLC spot)” value in series [2] was “a spot for cyclopentenone was noted in all of the samples and the higher the temperature for allowing to stand, the stronger the color of the spot for cyclopentenone”.
On to `O=C1C=CC(O)C1O` (stereo not drawn) [cyclopentenone, 4,5-dihydroxy-2-cyclopenten-1-one], for which, in series [3], the degraded at 720 h is ~30%.
